Assay results published in US9095136B2, “2-IODO imidazole-derivatives” (BAYER INTELLECTUAL PROPERTY GMBH, priority 2011, dated 2015).
“And” between values parts separate entries of the source, which are not always exact repeats. Equal entries are not always repeated. Where two headings read alike, the source gives them in different places. Marks after values point to notes of the source that are not given here.

Key:
[1] = tested on: Alternaria brassicae; test: Example O: preventative in vivo test with Alternaria brassicae (leaf spot on radish); details: 500 ppm, evaluation 5 days after inoculation
Method: The active compounds tested are prepared by homogenization in a mixture of acetone/Tween/DMSO and then diluted with water to the desired active compound concentration. Radish plants (cultivar “Pernod Clair”), sown in a 50/50 peat/pozzolana soil substrate and cultivated at 17° C., are treated at the 2-leaf stage by spraying with the active compound, prepared as above. As a control, plants are treated with the mixture of acetone/Tween/DMSO/water without the active compound. After 24 hours, the plants are inoculated by spraying the leaves with an aqueous suspension of Alternaria brassicae spores.

[2] = tested on: Uromyces appendiculatus; test: Example W: preventative in vivo test with Uromyces appendiculatus (bean rust); details: 500 ppm, evaluation 10 days after inoculation
Method: The active compounds tested are prepared by homogenization in a mixture of acetone/Tween/DMSO and then diluted with water to the desired active compound concentration. Bean plants (cultivar “Saxa”), sown in a 50/50 peat/pozzolana soil substrate and cultivated at 24° C., are treated at the 2-leaf stage (height 9 cm) by spraying with the active compound, prepared as above. As a control, plants are treated with the mixture of acetone/Tween/DMSO/water without the active compound. After 24 hours, the plants are inoculated by spraying the leaves with an aqueous suspension of Uromyces appendiculatus spores.

[3] = tested on: Puccinia recondita; test: Example T: preventative in vivo test with Puccinia recondita (brown rust on wheat); details: 500 ppm, evaluation 10 days after inoculation
Method: The active compounds tested are prepared by homogenization in a mixture of acetone/Tween/DMSO and then diluted with water to the desired active compound concentration. Wheat plants (cultivar “Scipion”), sown in a 50/50 peat/pozzolana soil substrate and cultivated at 22° C. (12 h)/20° C. (12 h), are treated at the 1-leaf stage (height 10 cm) by spraying with the active compound, prepared as above. As a control, plants are treated with the mixture of acetone/Tween/DMSO/water without the active compound. After 24 hours, the plants are inoculated by spraying the leaves with an aqueous suspension of Puccinia recondita spores.

[4] = tested on: Sphaerotheca fuliginea; test: Example V: preventative in vivo test with Sphaerotheca fuliginea (powdery mildew on cucumber); details: 500 ppm, evaluation 12 days after inoculation
Method: The active compounds tested are prepared by homogenization in a mixture of acetone/Tween/DMSO and then diluted with water to the desired active compound concentration. Cucumber plants (cultivar “Vert petit de Paris”), sown in a 50/50 peat/pozzolana soil substrate and cultivated at 24° C., are treated at the Z11 cotyledon stage by spraying with the active compound, prepared as above. As a control, plants are treated with the mixture of acetone/Tween/DMSO/water without the active compound. After 24 hours, the plants are inoculated by spraying the leaves with an aqueous suspension of Sphaerotheca fuliginea spores. The inoculated cucumber plants are incubated at about 20° C./25° C. and a relative atmospheric humidity of 60/70%.

[5] = tested on: Septoria tritici; test: Example U: preventative in vivo test with Septoria tritici (leaf blotch disease on wheat); details: 500 ppm, evaluation 21 to 28 days after inoculation
Method: The active compounds tested are prepared by homogenization in a mixture of acetone/Tween/DMSO and then diluted with water to the desired active compound concentration. Wheat plants (cultivar “Scipion”), sown in a 50/50 peat/pozzolana soil substrate and cultivated at 22° C. (12 h)/20° C. (12 h), are treated at the 1-leaf stage (height 10 cm) by spraying with the active compound, prepared as above. As a control, plants are treated with the mixture of acetone/Tween/DMSO/water without the active compound. After 24 hours, the plants are inoculated by spraying the leaves with an aqueous suspension of cryogenically preserved Septoria tritici spores.

[6] = log P by HPLC on reversed-phase columns (EEC directive 79/831 Annex V.A8); type: physicochemical
Method: The log P values were measured according to EEC directive 79/831 Annex V.A8 by HPLC (High Performance Liquid Chromatography) on reversed-phase columns, using the methods below: […] Calibration was carried out using unbranched alkan-2-ones (having from 3 to 16 carbon atoms) with known log P values (the log P values were determined by the retention times using linear interpolation between two successive alkanones). The lambda maX values were determined in the maxima of the chromatographic signals using the UV spectra from 200 nm to 400 nm.

[7] = tested on: Phytophthora infestans; type: in vivo; details: tomato, preventative, 500 ppm, evaluation 5 days after inoculation
[8] = tested on: Leptosphaeria nodorum; test: Example H: Leptosphaeria nodorum test (wheat)/protective; type: in vivo; details: protective, 500 ppm, evaluation 8 days after inoculation
Method: (§1) Solvent: 49 parts by weight of N,N-dimethylacetamide Emulsifier: 1 part by weight of alkylaryl polyglycol ether To produce a suitable preparation of active compound, 1 part by weight of active compound is mixed with the stated amounts of solvent and emulsifier, and the concentrate is diluted with water to the desired concentration. To test for protective activity, young plants are sprayed with the preparation of active compound at the stated application rate. After the spray coating has dried on, the plants are sprayed with a spore suspension of Leptosphaeria nodorum.

[9] = tested on: Fusarium nivale (var. majus); test: Example M: Fusarium nivale (var. majus) test (wheat)/protective; type: in vivo; details: protective, 500 ppm, evaluation 5 days after inoculation
Method: as §1, with “Fusarium nivale (var. majus).” for “Leptosphaeria nodorum.”

[10] = tested on: Septoria tritici; test: Example I: Septoria tritici test (wheat)/protective; type: in vivo; details: protective, 500 ppm, evaluation 21 days after inoculation
Method: as §1, with “Septoria tritici.” for “Leptosphaeria nodorum.”

[11] = tested on: Blumeria graminis f.sp. hordei; test: Example G: Blumeria graminis test (barley)/protective; type: in vivo; details: protective, 500 ppm, evaluation 7 days after inoculation
Method: Solvent: 49 parts by weight of N,N-dimethylacetamide Emulsifier: 1 part by weight of alkylaryl polyglycol ether To produce a suitable preparation of active compound, 1 part by weight of active compound is mixed with the stated amounts of solvent and emulsifier, and the concentrate is diluted with water to the desired concentration. To test for protective activity, young plants are sprayed with the preparation of active compound at the stated application rate. After the spray coating has dried on, the plants are dusted with spores of Blumeria graminis f.sp. hordei.

[12] = tested on: Pyricularia oryzae; type: in vivo; details: rice, protective, 500 ppm, evaluation 7 days after inoculation
[13] = tested on: Pyrenophora teres; test: Example K: Pyrenophora teres test (barley)/protective; type: in vivo; details: protective, 500 ppm, evaluation 8 days after inoculation
Method: as §1, with “Pyrenophora teres.” for “Leptosphaeria nodorum.”

[14] = tested on: Uromyces appendiculatus; test: Example E: Uromyces test (bean)/protective; type: in vivo; details: protective, 10 ppm, evaluation 10 days after inoculation
Method: Solvents: 24.5 parts by weight of acetone • 24.5 parts by weight of dimethylacetamide Emulsifier: 1 part by weight of alkylaryl polyglycol ether To produce a suitable preparation of active compound, 1 part by weight of active compound is mixed with the stated amounts of solvent and emulsifier, and the concentrate is diluted with water to the desired concentration. To test for protective activity, young plants are sprayed with the preparation of active compound at the stated application rate. […] The plants are then placed in a greenhouse at about 21° C. and a relative atmospheric humidity of about 90%.

[15] = tested on: Puccinia triticina; test: Example L: Puccinia triticina test (wheat)/protective; type: in vivo; details: protective, 500 ppm, evaluation 8 days after inoculation
Method: as §1, with “sprayed with spores with a spore” for “sprayed with a spore”, “suspension of Puccinia triticina.” for “suspension of Leptosphaeria nodorum.”

[16] = tested on: Alternaria solani; test: Example A: Alternaria test (tomato)/protective; type: in vivo; details: protective, 500 ppm, evaluation 7 days after inoculation
Method: Solvent: 49 parts by weight of N,N-dimethylformamide Emulsifier: 1 part by weight of alkylaryl polyglycol ether To produce a suitable preparation of active compound, 1 part by weight of active compound is mixed with the stated amounts of solvent and emulsifier, and the concentrate is diluted with water to the desired concentration. […] The plants then remain at 96% rel. atmospheric humidity and a temperature of 20° C.

[17] = tested on: Fusarium graminearum; type: in vivo; details: barley (heading), protective, 500 ppm, evaluation 5 days after inoculation
[18] = tested on: Sphaerotheca fuliginea; test: Example B: Sphaerotheca test (cucumber)/protective; type: in vivo; details: protective, 500 ppm, evaluation 7 days after inoculation
Method: Solvent: 49 parts by weight of N,N-dimethylformamide Emulsifier: 1 part by weight of alkylaryl polyglycol ether To produce a suitable preparation of active compound, 1 part by weight of active compound is mixed with the stated amounts of solvent and emulsifier, and the concentrate is diluted with water to the desired concentration. To test for protective activity, young cucumber plants are sprayed with the preparation of active compound at the stated application rate. 1 day after the treatment, the plants are inoculated with a spore suspension of Sphaerotheca fuliginea. The plants are then placed in a greenhouse at 70% relative air humidity and a temperature of 23° C.

Q: Which Efficacy % [1] does the source give for `Fc1ccc(C2(Cn3ccnc3I)OC2c2ccccc2Cl)cc1` (mixture of isomers) [Example 6] here?
A: 75%

Q: What does the source list for `Fc1cc(Cl)ccc1C1(Cn2ccnc2I)OC1c1ccccc1Cl` (mixture of isomers) [Example 9]?
A: Efficacy % [2]: 93%; Efficacy % [3]: 86%; Efficacy % [4]: 100%; Efficacy % [5]: 100%

Q: Which results are given for `Fc1ccc(C2(Cn3ccnc3I)OC2c2ccccc2Cl)c(Cl)c1` (mixture of isomers) [Example 15]?
A: Efficacy % [2]: 100%; Efficacy % [3]: 100%; Efficacy % [4]: 98%; Efficacy % [5]: 86%

Q: For `Fc1ccc([C@]2(Cn3ccnc3I)O[C@@H]2c2ccccc2Cl)c(F)c1` (relative stereo) [Example 13, rel-1-{[(2R,3R)-3-(2-chlorophenyl)-2-(2,4-difluorophenyl)oxiran-2-yl]methyl}-2-iodo-1H-imidazole], which chromatographic logP ([6]; pH 2.7, log P(HCOOH)) is on record?
A: 2.86

Q: And the chromatographic logP ([6]; pH 2.7, logP)?
A: 2.86

Q: And the Efficacy % [7]?
A: 98%

Q: With `CC(=Cc1ccccc1Cl)c1ccc(F)cc1F` [1-[1-(2-chlorophenyl)prop-1-en-2-yl]-2,4-difluorobenzene] as the compound, how does the chromatographic logP ([6]; pH 2.7, HPLC/MS, major diastereoisomer of the mixture, read-out: log P(HCOOH)) read?
A: 5.05

Q: And the chromatographic logP ([6]; pH 2.7, HPLC/MS, minor diastereoisomer of the mixture, read-out: log P(HCOOH))?
A: 5.34

Q: For `Fc1ccc(C(=Cc2ccccc2Cl)CBr)c(F)c1` [1-[3-bromo-1-(2-chlorophenyl)prop-1-en-2-yl]-2,4-difluorobenzene], which “log P(HCOOH)” value ([6]; pH 2.7) is on record?
A: 5.25

Q: What about the chromatographic logP ([6]; pH 2.7, log P(HCOOH)) of the same compound?
A: 4.8

Q: Which “log P(HCOOH)” value ([6]; pH 2.7) does the source give for `Fc1ccc(C2(CBr)OC2c2ccccc2Cl)c(F)c1` (centres unmarked) [2-(bromomethyl)-3-(2-chlorophenyl)-2-(2,4-difluorophenyl)oxirane] here?
A: 5.00

Q: And the chromatographic logP ([6]; pH 2.7, log P(HCOOH))?
A: 4.61

Q: Which Eff. % [8] does the source give for `OC(Cc1ccccc1F)(Cn1ccnc1I)C1(Cl)CC1` (centres unmarked) [Example 2] here?
A: 93%

Q: What about the logP ([6]; pH 2.7) of the same compound?
A: 2.05

Q: And the logP ([6]; pH 7.8)?
A: 3.02

Q: And the Eff. % [9]?
A: 100%

Q: And the Eff. % [10]?
A: 86%

Q: What about the Eff. % [11] of the same compound?
A: 100%

Q: And the Eff. % [12]?
A: 80%

Q: What about the Eff. % [13] of the same compound?
A: 100%

Q: And the Eff. % [14]?
A: 91% and 100%

Q: What about the Eff. % [15] of the same compound?
A: 100%

Q: And the Eff. % [16]?
A: 95%

Q: What about the Eff. % [17] of the same compound?
A: 92% and 100%

Q: And the Eff. % [18]?
A: 92%

Q: What does the source list for `OC(Cn1ccnc1I)(c1ccc(Cl)cc1)C1(Oc2ccc(F)cc2)CC1` (centres unmarked) [Example 3]?
A: logP ([6]; pH 2.7): 2.55; logP ([6]; pH 7.8): 3.55

Q: Which results are given for `OC(Cn1ccnc1I)(c1ccc(F)cc1F)C1(Oc2ccc(F)cc2)CC1` (centres unmarked) [Example 5]?
A: Eff. % [12]: 95%; Eff. % [18]: 88%

Q: Which logP ([6]; pH 2.7) does the source give for `Fc1ccc(C2(Cn3ccnc3I)OC2c2ccccc2Cl)cc1` (centres unmarked) [Example 7] here?
A: 2.73^[a]

Q: For `Fc1cc(Cl)ccc1C1(Cn2ccnc2I)OC1c1ccccc1Cl` (centres unmarked) [Example 10], which logP ([6]; pH 2.7) is on record?
A: 3.23^[a]

Q: What about the Efficacy % [4] of the same compound?
A: 98%

Q: What about the Efficacy % [5] of the same compound?
A: 96%

Q: Which results are given for `Fc1ccc(C2(Cn3ccnc3I)OC2c2ccccc2Cl)c(F)c1` (centres unmarked) [Example 12, 1-{[3-(2-chlorophenyl)-2-(2,4-difluorophenyl)oxiran-2-yl]methyl}-2-iodo-1H-imidazole]?
A: log P(HCOOH) ([6]; pH 2.7): 3.31; chromatographic logP ([6]; pH 2.7, log P(HCOOH)): 2.92; chromatographic logP ([6]; pH 2.7, logP): 2.92; Eff. % [10]: 71%; Efficacy % [7]: 88%; Efficacy % [2]: 99%; Efficacy % [3]: 93%; Efficacy % [4]: 100%; Efficacy % [5]: 100%

Q: For `Fc1ccc(C2(Cn3ccnc3I)OC2c2ccccc2Cl)c(Cl)c1` (centres unmarked) [Example 16], which logP ([6]; pH 2.7) is on record?
A: 3.13^[a]

Q: For `Fc1ccc(C2(Cn3ccnc3I)OC2c2ccccc2Cl)c(Cl)c1` (centres unmarked) [Example 17], which logP ([6]; pH 2.7) is on record?
A: 3.68^[a]

Q: What about the Efficacy % [2] of the same compound?
A: 100%

Q: What about the Eff. % [14] of the same compound?
A: 75%

Q: What about the Efficacy % [3] of the same compound?
A: 100%

Q: What about the Efficacy % [4] of the same compound?
A: 100%

Q: What about the Efficacy % [5] of the same compound?
A: 97%

Q: For `OC(Cc1c(Cl)cccc1I)(Cn1ccnc1I)C1(Cl)CC1` (centres unmarked) [Example 18], which logP ([6]; pH 2.7) is on record?
A: 3.04

Q: What about the logP ([6]; pH 7.8) of the same compound?
A: 4

Q: What about the Efficacy % [2] of the same compound?
A: 100%

Q: And the Efficacy % [4]?
A: 100%
